Reference: paper PMC5295395, “Inhibition of PlexA1-mediated brain tumor growth and tumor-associated angiogenesis using a transmembrane domain targeting peptide” (Oncotarget, 2016)

Tests used:
U373MG cells = assay: U373MG cell proliferation; assay type: cell-based, human
[1] = system: GBM tumors grafted in brain of immunocompromised mice; assay: orthotopic GBM graft in mouse brain; assay type: in vivo, human cells in mouse; conditions: i.p., 1 μg/kg every 3 days for 3 weeks, 1.5 µg/kg 3 times per week
Protocol: To address the biological consequences of MTP-PlexA1-mediated inhibition of PlexA1 we used the U118MG-Luc glioma cell line genetically engineered to express the luciferase reporter gene. […] Cells were then grafted subcutaneously and tumor growth was monitored every 5 days for a total period of 20 days. […] The quantitative analysis of the cumulated luminescent signal acquired all along the protocol confirmed the strong reduction of tumor development translating into a marked 75% reduction of the averaged luminescent signal at the end point (Figure 6C). […] However, responses were strong for 8 out of 10 mice with some responses close to 100%, all of them being at least Partial Response (PR) (Figure 6D). In order to clarify the mechanism by which MTP-PlexA1 is exerting tumor growth inhibition we collected tumors and analyzed them histologically.
Supplementary Figure S5: We performed an orthotropic grafting experiment to monitor the effect of MTP-PlexA1 on GBM tumors developing in their native microenvironment. All procedures using animals are submitted to the Animal Care and Use Committee of AL/54/61/02/13. Immunocompromised mice are anesthetized with isoflurane 3% (BAXTER), under 0.5 L O2, and received a subcutaneous injection of ketofen 1% 1.5 mL/Kg (MERIAL). The scalp is incised and 100 000 cells of the dissociated GBM biopsy were engrafted with a 2 µL Hamilton syringe (HARVARD APPARATUS; HAM-88400) mounted on a stereotaxic set up (HARVARD APPARATUS) to inject cells at the following coordinates from the bregma x: −2 mm; y: +1 mm; z: −3.5 mm at a speed of 0.66 µl/min, 5 minutes after the syringe introduction. […] Tumor volume is calculated by the addition of every partial volume: [V total = Σ partial volumes = Σ d1 × (S1 + S2)/2 + d2 x (S2 + S3)/2 + … + dn x […]]. […] The immunostaining procedure used to quantify proliferation and vascularization of the tumor is described in the method section.While not strongly impacting tumor volume (−14.5%, p = 0.54, Mann Whitney test) the intraperitoneal […]

Question: Which results are given for “TLPAIVGIGGGGGLLLLVIVAVLIAYKRK [MTP-PlexA1, synthetic transmembrane peptide mimicking the TMD of PlexA1]”?
Answer: U373MG cell proliferation, dose dependence (U373MG cells): dose-dependent reduction; change of U373MG cell proliferation, maximal effect (U373MG cells; at 10–7 M, p < 0.0001, Mann Whitney): –25%; change of tumor volume, orthotopic ([1]; n = 12, p = 0.54, Mann Whitney): −14.5%; change of PH3 positive cells, orthotopic ([1]; p = 0.0023): −38.3%; change of angiogenesis, orthotopic ([1]; p = 0.0378): −14.3%
